From the supplement of paper PMC11208160

Assay: recombinant UMI read abundance after kanamycin selection (control-corrected) (log10(CPM+1)); higher = more efficient recombination; extreme values may be limits of the assay; sequences stand for … in AGTGCAGAGAAAATCGGCCAGTTTTCTCTGCCTGCAGTCCGCATGCCGTGGGACCCCTTGGGTTCTAACCTGTTGCCTAGATTTATGCAGCGGACTGCCTTTCTCCCAAAGTGATAAACCGG…AGGTTGGTTTCACT; site = the 11-nt donor
Summary of the method: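 Sequenced counts of recombinant UMIs were turned into CPM, averaged across replicates and scaled with control-derived factors. The reported figure is log10(CPM+1). Those UMIs, each 12 nt long, tagged donor and donor-binding-loop pairs on a plasmid with a promoterless kanamycin gene, screened as a pool in Escherichia coli with IPTG (0.07 mM) plus kanamycin or without selection.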
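Also: IS621 bridge recombinase in Escherichia coli cells against a fixed T5 target plasmid.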

Sequence | recombinant UMI read abundance (log10)
AGGGAACCATGGACCGGTTTTCCCGGTAATCCGTATTTGAT (site TGGGAACCTAT) | 0
AGGGAGACATGGACCGGTTTTCCCGGTAATCCGTATTTGCC (site AGGGAGACTGG) | 1.26
AGGGAGACATGGACCGGTTTTCCCGGTAATCCGTATTTGCG (site AGGAAGACTTG) | 0.64
AGGGAGACATGGACCGGTTTTCCCGGTAATCCGTATTTGCG (site AGGGAGACTCG) | 1.54
AGGGAGCCATGGACCGGTTTTCCCGGTAATCCGTATTTGCC (site AGGGAGCCTGG) | 0
AGGGCTACATGGACCGGTTTTCCCGGTAATCCGTATTTGAC (site AGGACTACTGT) | 1.24
AGGGCTACATGGACCGGTTTTCCCGGTAATCCGTATTTGAC (site AGGCCTACTGT) | 0
AGGGCTACATGGACCGGTTTTCCCGGTAATCCGTATTTGAC (site AGGGCTACTGT) | 2.55
AGGGCTACATGGACCGGTTTTCCCGGTAATCCGTATTTGAC (site AGGTCTACTGT) | 1
AGGGTCCCATGGACCGGTTTTCCCGGTAATCCGTATTTGTC (site AGGGTCCCTGA) | 0.534
AGGTAAACATGGACCGGTTTTCCCGGTAATCCGTATTTGAG (site AGGTAAACTCT) | 2.07
AGGTAGACATGGACCGGTTTTCCCGGTAATCCGTATTTGCC (site AGGAAGACTTG) | 0
AGGTAGACATGGACCGGTTTTCCCGGTAATCCGTATTTGCC (site AGGTAGACTGG) | 2.79
AGGTAGGCATGGACCGGTTTTCCCGGTAATCCGTATTTGTT (site AGGTAGGCTAA) | 1.94
AGGTATCCATGGACCGGTTTTCCCGGTAATCCGTATTTGTC (site AGGTATCCTGA) | 0.494
AGGTCAGCATGGACCGGTTTTCCCGGTAATCCGTATTTGAT (site AGGTCAGCTAT) | 1.84
AGGTCTACATGGACCGGTTTTCCCGGTAATCCGTATTTGAC (site AGGACTACTGT) | 0
AGGTCTACATGGACCGGTTTTCCCGGTAATCCGTATTTGAC (site AGGCCTACTGT) | 2.1
AGGTCTACATGGACCGGTTTTCCCGGTAATCCGTATTTGAC (site AGGGCTACTGT) | 0.00558
AGGTCTACATGGACCGGTTTTCCCGGTAATCCGTATTTGAC (site AGGTCTACTGT) | 1.18
AGGTGCCCATGGACCGGTTTTCCCGGTAATCCGTATTTGGA (site AGGTGCCCTTC) | 0.00688
AGGTGGGCATGGACCGGTTTTCCCGGTAATCCGTATTTGTG (site AGGTGGGCTCA) | 1.56
AGGTTAGCATGGACCGGTTTTCCCGGTAATCCGTATTTGAG (site AGGTTAGCTCT) | 1.94

Sequence | recombinant UMI read abundance (log10)
AGGTTCCCATGGACCGGTTTTCCCGGTAATCCGTATTTGTA (site AGGTTCCCTAA) | 0.0166
AGGTTCCCATGGACCGGTTTTCCCGGTAATCCGTATTTGTA (site AGGTTCCCTCA) | 0.0195
AGGTTCCCATGGACCGGTTTTCCCGGTAATCCGTATTTGTA (site AGGTTCCCTGA) | 0
AGGTTCCCATGGACCGGTTTTCCCGGTAATCCGTATTTGTA (site AGGTTCCCTTA) | 1.5
AGGTTGCCATGGACCGGTTTTCCCGGTAATCCGTATTTGTG (site AGGTTACCTCA) | 0.00238
AGGTTGCCATGGACCGGTTTTCCCGGTAATCCGTATTTGTG (site AGGTTCCCTCA) | 0.00991
AGGTTGCCATGGACCGGTTTTCCCGGTAATCCGTATTTGTG (site AGGTTGCCTCA) | 0.00688
AGGTTGCCATGGACCGGTTTTCCCGGTAATCCGTATTTGTG (site AGGTTTCCTCA) | 0.00563
AGTAATGCATGGACCGGTTTTCCCGGTAATCCGTATTTGAG (site AGTAATGCTCT) | 2.15
AGTACACCATGGACCGGTTTTCCCGGTAATCCGTATTTGAC (site AGTACACCTGT) | 0
AGTACACCATGGACCGGTTTTCCCGGTAATCCGTATTTGAC (site CGTACACCTGT) | 0.0138
AGTACACCATGGACCGGTTTTCCCGGTAATCCGTATTTGAC (site GGTACACCTGT) | 0
AGTACACCATGGACCGGTTTTCCCGGTAATCCGTATTTGAC (site TGTACACCTGT) | 0
AGTAGATCATGGACCGGTTTTCCCGGTAATCCGTATTTGGA (site AGTAGATCTTC) | 1.45
AGTAGGTCATGGACCGGTTTTCCCGGTAATCCGTATTTGAA (site AGTAGGTCTTT) | 1.07
AGTCACTCATGGACCGGTTTTCCCGGTAATCCGTATTTGCA (site AGTCACTCTTG) | 2.8
AGTCAGCCATGGACCGGTTTTCCCGGTAATCCGTATTTGGA (site AGTCAGCCTTC) | 0.0114
AGTCCACCATGGACCGGTTTTCCCGGTAATCCGTATTTGGG (site AGTCCACCTCC) | 0.00962
AGTCGGTCATGGACCGGTTTTCCCGGTAATCCGTATTTGGC (site AGTCGGTCTGC) | 0
AGTCTGACATGGACCGGTTTTCCCGGTAATCCGTATTTGCT (site AGTCTGACTAG) | 1.87
AGTGCCACATGGACCGGTTTTCCCGGTAATCCGTATTTGAG (site AGTGCCACTCT) | 0.4
AGTGCCCCATGGACCGGTTTTCCCGGTAATCCGTATTTGCT (site AGTGCCCCTAG) | 0.594
AGTGCTCCATGGACCGGTTTTCCCGGTAATCCGTATTTGAA (site AGTGCTCCTTT) | 0.416

Sequence | recombinant UMI read abundance (log10)
AGTTACACATGGACCGGTTTTCCCGGTAATCCGTATTTGCC (site AGTTACACTGG) | 2.42
AGTTATGCATGGACCGGTTTTCCCGGTAATCCGTATTTGGA (site AATTATGCTTC) | 0.159
AGTTATGCATGGACCGGTTTTCCCGGTAATCCGTATTTGGA (site ACTTATGCTTC) | 0.849
AGTTATGCATGGACCGGTTTTCCCGGTAATCCGTATTTGGA (site AGTTATGCTTC) | 0.923
AGTTATGCATGGACCGGTTTTCCCGGTAATCCGTATTTGGA (site ATTTATGCTTC) | 0.709
AGTTGTACATGGACCGGTTTTCCCGGTAATCCGTATTTGGT (site AGTTGTACTAC) | 0.56
AGTTGTCCATGGACCGGTTTTCCCGGTAATCCGTATTTGGG (site AGTTGTCCTCC) | 0.0152
AGTTGTGCATGGACCGGTTTTCCCGGTAATCCGTATTTGAA (site AGTTGTGCTTT) | 0.535
AGTTGTTCATGGACCGGTTTTCCCGGTAATCCGTATTTGGC (site AGTTGTTCTGC) | 1.34
AGTTTGGCATGGACCGGTTTTCCCGGTAATCCGTATTTGCT (site AGTTTGGCTAG) | 0.0222
AGTTTGGCATGGACCGGTTTTCCCGGTAATCCGTATTTGCT (site CGTTTGGCTAG) | 0
AGTTTGGCATGGACCGGTTTTCCCGGTAATCCGTATTTGCT (site GGTTTGGCTAG) | 0
AGTTTGGCATGGACCGGTTTTCCCGGTAATCCGTATTTGCT (site TGTTTGGCTAG) | 0.0837
ATAAAGGCATGGACCGGTTTTCCCGGTAATCCGTATTTGGG (site ATAAAGGCTCC) | 1.03
ATAACTCCATGGACCGGTTTTCCCGGTAATCCGTATTTGCC (site ATAACTCCTGG) | 1.64
ATAAGCACATGGACCGGTTTTCCCGGTAATCCGTATTTGAT (site ATAAGCACTAT) | 2.23
ATAAGCCCATGGACCGGTTTTCCCGGTAATCCGTATTTGAC (site ATAAGACCTGT) | 0
ATAAGCCCATGGACCGGTTTTCCCGGTAATCCGTATTTGAC (site ATAAGCCCTGT) | 2.3
ATAAGCCCATGGACCGGTTTTCCCGGTAATCCGTATTTGAC (site ATAAGGCCTGT) | 0.528
ATAAGCCCATGGACCGGTTTTCCCGGTAATCCGTATTTGAC (site ATAAGTCCTGT) | 0.889
ATAAGGCCATGGACCGGTTTTCCCGGTAATCCGTATTTGTC (site ATAAGGCCTGA) | 1.94
ATAAGGCCATGGACCGGTTTTCCCGGTAATCCGTATTTGTC (site ATAAGGCCTGC) | 0
